The record followed here is patent publication US20140315889A1, “HYDROXAMATE DERIVATIVES FOR HDAC INHIBITOR, AND THE PHARMACEUTICAL COMPOSITION COMPRISING THEREOF” (CHONG KUN DANG PHARMACEUTICAL CORP., priority 2011, published 2014).

Experiment [1] addresses T1, Human recombinant HDAC1 (Homo sapiens, UniProt Q13547).
T1 construct: purchased Enzo Life Science Co. (named for the kit; assigned to the enzyme from the BML- catalogue prefix) BML-SE456
In words: HDAC enzyme activity test, HDAC1. The format is biochemical. The note with it: Table 12; read-out: Inhibition ability (IC50) HDAC1. The procedure: (§1) Then, 0.3 μg of enzyme and 10 μM of substrate per well were added, reacted at 30° C. for 60 minutes. Thereto, Fluor de Lys® Developer II (BML-KI176) was added and reacted for 30 minutes. […] From the data, the respective IC50 were calculated by GraphPad Prism 4.0 program.

Experiment [2] has as its target T2, human recombinant HDAC6 (Homo sapiens, UniProt Q9UBN7).
T2 construct: purchased Calibiochem Co. (so in the source) 382180
T2 sequence (Q9UBN7 1-1215): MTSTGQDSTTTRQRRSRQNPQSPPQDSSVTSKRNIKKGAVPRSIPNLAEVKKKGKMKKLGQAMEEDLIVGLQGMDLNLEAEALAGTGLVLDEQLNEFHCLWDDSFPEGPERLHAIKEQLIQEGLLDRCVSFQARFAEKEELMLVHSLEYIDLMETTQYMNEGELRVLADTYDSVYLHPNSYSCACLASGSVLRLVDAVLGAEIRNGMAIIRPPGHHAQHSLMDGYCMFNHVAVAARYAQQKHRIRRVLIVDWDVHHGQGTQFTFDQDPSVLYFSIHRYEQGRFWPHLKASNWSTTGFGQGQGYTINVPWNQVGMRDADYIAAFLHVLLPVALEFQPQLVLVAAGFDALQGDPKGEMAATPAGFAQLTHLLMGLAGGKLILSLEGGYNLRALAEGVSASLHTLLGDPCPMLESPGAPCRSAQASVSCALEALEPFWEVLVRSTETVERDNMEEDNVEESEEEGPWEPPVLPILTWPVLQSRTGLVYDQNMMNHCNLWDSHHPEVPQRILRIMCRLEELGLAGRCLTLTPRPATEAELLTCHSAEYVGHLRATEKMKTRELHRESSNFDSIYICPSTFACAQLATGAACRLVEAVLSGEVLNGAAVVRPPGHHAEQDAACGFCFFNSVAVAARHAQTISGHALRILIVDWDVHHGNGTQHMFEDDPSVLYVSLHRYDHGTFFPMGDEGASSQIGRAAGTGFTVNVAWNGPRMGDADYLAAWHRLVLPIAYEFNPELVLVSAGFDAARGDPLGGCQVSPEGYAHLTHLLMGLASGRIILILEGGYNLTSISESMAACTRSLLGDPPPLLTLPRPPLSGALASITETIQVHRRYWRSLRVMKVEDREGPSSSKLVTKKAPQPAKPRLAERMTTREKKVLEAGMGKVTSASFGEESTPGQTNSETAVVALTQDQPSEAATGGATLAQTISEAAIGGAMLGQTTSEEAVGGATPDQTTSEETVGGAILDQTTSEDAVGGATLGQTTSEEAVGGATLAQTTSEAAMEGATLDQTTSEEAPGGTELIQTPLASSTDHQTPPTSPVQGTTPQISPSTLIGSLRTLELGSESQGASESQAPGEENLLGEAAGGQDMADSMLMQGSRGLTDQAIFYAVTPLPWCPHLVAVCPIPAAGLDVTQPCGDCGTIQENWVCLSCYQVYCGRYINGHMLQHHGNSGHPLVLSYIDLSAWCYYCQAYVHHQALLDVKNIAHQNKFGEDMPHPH
In words: HDAC enzyme activity test, HDAC6. The class given is biochemical. The settings on record: for Selectivity for HDAC6, HD1/HD6 / pIC50: Table 12; for Selectivity for HDAC6, HD1/HD6: ratio HDAC1 IC50 / HDAC6 IC50; for pIC50: read-out: Inhibition ability (IC50) HDAC6. As for the experimental part:
as §1

Each structure is given as a SMILES string. pIC50: −log10 of the molar value.

T1 sequence (Q13547 whole entry): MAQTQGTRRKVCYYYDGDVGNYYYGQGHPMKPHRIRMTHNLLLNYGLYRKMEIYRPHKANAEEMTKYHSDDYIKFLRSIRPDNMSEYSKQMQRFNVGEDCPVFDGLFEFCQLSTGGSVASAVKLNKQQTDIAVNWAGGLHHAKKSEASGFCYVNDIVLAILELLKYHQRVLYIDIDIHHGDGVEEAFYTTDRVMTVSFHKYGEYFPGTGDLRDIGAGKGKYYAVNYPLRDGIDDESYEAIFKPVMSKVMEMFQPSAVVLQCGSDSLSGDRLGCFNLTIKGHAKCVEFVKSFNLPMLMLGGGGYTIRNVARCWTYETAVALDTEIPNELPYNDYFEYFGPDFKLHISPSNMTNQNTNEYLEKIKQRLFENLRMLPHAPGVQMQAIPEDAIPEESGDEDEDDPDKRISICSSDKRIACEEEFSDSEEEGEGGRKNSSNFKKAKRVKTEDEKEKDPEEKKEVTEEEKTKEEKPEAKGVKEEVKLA

Consider `O=C(NO)c1ccc(Cn2c3c(c4cc(F)ccc42)C(=O)C(CN2CC[C@@H](F)C2)CC3)cc1` (stereo partly drawn) [Compound 283, 4-((6-fluoro-3-(((R)-3-fluoropyrrolidin-1-yl)methyl)-4-oxo-1,2,3,4-tetrahydrocarbazol-9-yl)methyl)-N-hydroxybenzamide], for which the pIC50 (as a rule, the negative decadic logarithm of the IC50, by convention in mol/L) was 4.93 in experiment [1] and 8.08 in experiment [2]. In addition, the “Selectivity for HDAC6, HD1/HD6” value in experiment [2] was determined as 1420.6.
For `COCCN1CCN(CC2CCc3c(c4cc(F)ccc4n3Cc3ccc(C(=O)NO)cc3)C2=O)CC1` (stereo not shown) [Compound 284, 4-((6-fluoro-3-((4-(2-methoxyethyl)piperazin-1-yl)methyl)-4-oxo-1,2,3,4-tetrahydrocarbazol-9-yl)methyl)-N-hydroxybenzamide], in that order: 4.97, 8.13 and 1435.7.
The corresponding values for `COC[C@@H]1CCCN1CCN1CCc2c(c3cc(F)ccc3n2Cc2ccc(C(=O)NO)cc2)C1=O` [Compound 285, (S)-4-((8-fluoro-2-(2-(2-(methoxymethyl)pyrrolidin-1-yl)ethyl)-1-oxo-1,2,3,4-tetrahydropyrido[4,3-b]indol-5-yl)methyl)-N-hydroxybenzamide] are 4.88, 7.65 and 588.2.
Regarding `O=C(NO)c1ccc(Cn2c3c(c4cc(F)ccc42)C(=O)N(CCN2CCC(CO)CC2)CC3)cc1` [Compound 286, 4-((8-fluoro-2-(2-(4-(hydroxymethyl)piperidin-1-yl)ethyl)-1-oxo-1,2,3,4-tetrahydropyrido[4,3-b]indol-5-yl)methyl)-N-hydroxybenzamide], the pIC50 in experiment [1] was 4.98. Further, in experiment [2], the “Selectivity for HDAC6, HD1/HD6” value came to 607 and the pIC50 was 7.76.
Regarding `CN1CCN(CCN2CCc3c(c4cc(F)ccc4n3Cc3ccc(C(=O)NO)cc3)C2=O)CC1` [Compound 287, 4-((8-fluoro-2-(2-(4-methylpiperazin-1-yl)ethyl)-1-oxo-1,2,3,4-tetrahydropyrido[4,3-b]indol-5-yl)methyl)-N-hydroxybenzamide], the values for the pIC50 in experiment [1] and in experiment [2] were 5.09 and 7.94, respectively. For the same compound, the “Selectivity for HDAC6, HD1/HD6” value in experiment [2] worked out at 715.1.
For `O=C(NO)c1ccc(Cn2c3c(c4cc(F)ccc42)C(=O)N(CCN2CCN(CCO)CC2)CC3)cc1` [Compound 288, 4-((8-fluoro-2-(2-(4-(2-hydroxyethyl)piperazin-1-yl)ethyl)-1-oxo-1,2,3,4-tetrahydropyrido[4,3-b]indol-5-yl)methyl)-N-hydroxybenzamide], in that order: 5.12, 7.98 and 708.9.
The corresponding values for `O=C(NO)c1ccc(Cn2c3c(c4cc(F)ccc42)C(=O)N(CCN2CCC[C@@H]2CO)CC3)cc1` [Compound 289, (R)-4-((8-fluoro-2-(2-(2-(hydroxymethyl)pyrrolidin-1-yl)ethyl)-1-oxo-1,2,3,4-tetrahydropyrido[4,3-b]indol-5-yl)methyl)-N-hydroxybenzamide] are 5.10, 7.94 and 691.2.
Turning to `O=C(NO)c1ccc(Cn2c3c(c4cc(F)ccc42)C(=O)N(CCN2CCC[C@H]2CO)CC3)cc1` [Compound 290, (S)-4-((8-fluoro-2-(2-(2-(hydroxymethyl)pyrrolidin-1-yl)ethyl)-1-oxo-1,2,3,4-tetrahydropyrido[4,3-b]indol-5-yl)methyl)-N-hydroxybenzamide], the negative logarithm of the IC50 (pIC50) in experiment [1] was 5.19. Moreover, in experiment [2], the “Selectivity for HDAC6, HD1/HD6” value is on record as 2925.1 and the pIC50 is 8.66. Besides, the “selectivity for HDAC6 over HDAC1” value in experiment [2] (from the data of Table 12) is listed as “more than 2,900 times”.
As to `CN1CCCN(CCN2CCc3c(c4cc(F)ccc4n3Cc3ccc(C(=O)NO)cc3)C2=O)CC1` [Compound 291, 4-((8-fluoro-2-(2-(4-methyl-1,4-diazepan-1-yl)ethyl)-1-oxo-1,2,3,4-tetrahydropyrido[4,3-b]indol-5-yl)methyl)-N-hydroxybenzamide], the negative logarithm of the IC50 (pIC50) in experiment [1] is 5.10. Also, in experiment [2], the “Selectivity for HDAC6, HD1/HD6” value was 426.3 and the negative logarithm of the IC50 (pIC50) was 7.73.
On to `CN(CCO)CCN1CCc2c(c3cc(F)ccc3n2Cc2ccc(C(=O)NO)cc2)C1=O` [Compound 292, 4-((8-fluoro-2-(2-((2-hydroxyethyl)(methyl)amino)ethyl)-1-oxo-1,2,3,4-tetrahydropyrido[4,3-b]indol-5-yl)methyl)-N-hydroxybenzamide], for which the pIC50 in experiment [1] was 5.00. In experiment [2], the “Selectivity for HDAC6, HD1/HD6” value amounted to 781.3 and the pIC50 is 7.89.
Regarding `O=C(NO)c1ccc(Cn2c3ccc(F)cc3c3c(=O)[nH]ccc32)cc1` [Compound 305, 4-((8-fluoro-1-oxo-1,2-dihydropyrido[4,3-b]indol-5-yl)methyl)-N-hydroxybenzamide], the pIC50 in experiment [1] is 5.61; in experiment [2], 8.60. The “Selectivity for HDAC6, HD1/HD6” value in experiment [2] is 980.4.
The corresponding values for `O=C(NO)c1ccc(Cn2c3c(c4cc(F)ccc42)C(=O)NCC3)cc1` [Compound 306, 4-((8-fluoro-1-oxo-1,2,3,4-tetrahydropyrido[4,3-b]indol-5-yl)methyl)-N-hydroxybenzamide] are 5.49, 8.51 and 1041.9.
The corresponding values for `O=C(CCCCCn1c2c(c3cc(F)ccc31)C(=O)C(CN1CCOCC1)CC2)NO` (stereo not shown) [Compound 321, 6-(6-fluoro-3-(morpholinomethyl)-4-oxo-1,2,3,4-tetrahydrocarbazol-9-yl)-N-hydroxyhexanamide] are 4.87, 6.96 and 121.8.
Consider `O=C(CCCCCn1c2c(c3cc(F)ccc31)C(=O)C(CN1CCN(c3ccc(F)cc3)CC1)CC2)NO` (stereo not shown) [Compound 322, 6-(6-fluoro-3-((4-(4-fluorophenyl)piperazin-1-yl)methyl)-4-oxo-1,2,3,4-tetrahydrocarbazol-9-yl)-N-hydroxyhexanamide], for which, in experiment [1], the pIC50 is 5.13. In experiment [2], the “Selectivity for HDAC6, HD1/HD6” value amounted to 40.8 and the pIC50 is 6.74.
For `CC1CN(CC2CCc3c(c4cc(F)ccc4n3CCCCCC(=O)NO)C2=O)CC(C)O1` (stereo not shown) [Compound 323, 6-(3-((2,6-dimethylmorpholino)methyl)-6-fluoro-4-oxo-1,2,3,4-tetrahydrocarbazol-9-yl)-N-hydroxyhexanamide], in that order: 5.05, 102.2 and 7.06.
In the case of `CC(C)(C)OC(=O)N1CCN(CC2CCc3c(c4cc(F)ccc4n3CCCCCC(=O)NO)C2=O)CC1` (stereo not shown) [Compound 324, tert-butyl 4-((6-fluoro-9-(6-(hydroxyamino)-6-oxohexyl)-4-oxo-2,3,4,9-tetrahydro-1H-carbazol-3-yl)methyl)piperazine-1-carboxylate], the negative logarithm of the IC50 (pIC50) in experiment [1] is 4.93; in experiment [2] it was 6.99. The “Selectivity for HDAC6, HD1/HD6” value in experiment [2] came to 113.2.
`O=C(CCCCCCn1c2c(c3cc(F)ccc31)C(=O)CCC2)NO` [Compound 325, 7-(3-fluoro-5-oxo-5,6,7,8-tetrahydrocarbazol-9-yl)-N-hydroxyheptanamide]: in experiment [1], the pIC50 was 7.03. In experiment [2], the “Selectivity for HDAC6, HD1/HD6” value was 31.3 and the pIC50 was 8.52.
